Converted amounts (≈) assume the structure as drawn. Like-named read-outs stand apart in the source and are kept apart here.
Columns and labels:
Mtb H37Rv (ATCC27294) = test: Antimycobacterial activity, microplate Alamar blue assay (MABA); assay type: cell-based, Mycobacterium tuberculosis
C. albicans (ATCC90028) = test: Antifungal activity, broth microdilution; assay type: cell-based, Candida albicans; conditions: Candida albicans ATCC 90028, read-out: MIC
Experimental: (§1) All synthesized compounds and the positive control drugs amphotericin B and ketoconazole were tested for their in vitro antifungal activity. Antifungal activity was evaluated against four fungi, C. albicans (ATCC90028), C. tropicalis (ATCC7349), A. fumigatus (3.5352), and C. neoformans (2.3201), by broth microdilution according to the protocols from the NCCLS (Jiang et al., [2014]). Briefly, all tested compounds were dissolved in DMSO, and the solutions were diluted with fresh broth medium. All of the fungi-seeded broth (1 × 10^5 colony-forming units [CFU]/mL) were prepared in RPMI 1640 medium and added into the serially diluted drug solution. The tubes were incubated at 28°C, and the MIC (μg/mL) was recorded 72–96 h post-incubation. Broth control (without fungi), growth controls (with fungi and without drug), solvent (DMSO) control, and drug control for both test drugs and standard drugs were set under identical conditions. The minimum drug concentration in the tubes in which no apparent growth of the organism was observed represented the MIC of the compounds.

A. fumigatus (3.5352) = test: Antifungal activity, broth microdilution; assay type: cell-based; conditions: Aspergillus fumigatus; A. fumigatus 3.5352; read-out: MIC
Experimental: as §1

C. neoformans (2.3201) = test: Antifungal activity, broth microdilution; assay type: cell-based; conditions: Cryptococcus neoformans; C. neoformans 2.3201; read-out: MIC
Experimental: as §1

C. tropicalis (ATCC7349) = test: Antifungal activity, broth microdilution; assay type: cell-based; conditions: Candida tropicalis, C. tropicalis ATCC 7349, read-out: MIC
Experimental: as §1

[1] = Mycobacterium tuberculosis, Mtb H37Rv, MABA assay, read-out: MIC
[2] = Mycobacterium tuberculosis, Mtb H37Rv, repeated in Table 5 for the 3D-QSAR models, read-out: MIC
[3] = Mycobacterium tuberculosis, experimental pMIC, Mtb H37Rv, Table 5, read-out: pMIC exp (converted)

Row | SMILES | MIC (Mtb H37Rv (ATCC27294); [1]) | MIC (Mtb H37Rv (ATCC27294); [2]) | MIC (Mtb H37Rv (ATCC27294); [3]) | MIC (C. albicans (ATCC90028)) | MIC (A. fumigatus (3.5352)) | MIC (C. neoformans (2.3201)) | MIC (C. tropicalis (ATCC7349)) | melting point | MIC (Mtb H37Rv (ATCC27294); Mycobacterium tuberculosis) | MIC (Mtb H37Rv (ATCC27294); Mtb H37Rv, MABA assay)
1 | Cc1ccc(N2C(=O)CSC2c2c[n+]([O-])c3ccccc3[n+]2[O-])cc1 (centres unmarked) [2b, 2-(3′-P-methylphenyl-4′(5H)-thiazolidinone)-quinoxaline-1,4-di-N-oxide] | 12.5 µg/mL | 12.5 µg/mL | 35.4 µM | 16 µg/mL (≈ 45.3 µM) | 32 µg/mL (≈ 90.5 µM) | 32 µg/mL (≈ 90.5 µM) | 8 µg/mL (≈ 22.6 µM) | 251 to 253 °C |  | 
2 | COc1ccc(N2C(=O)CSC2c2c[n+]([O-])c3ccccc3[n+]2[O-])cc1 (centres unmarked) [2c, 2-(3′-P-methoxyphenyl-4′(5H)-thiazolidinone)-quinoxaline-1,4-di-N-oxide] | 12.5 µg/mL | 12.5 µg/mL | 33.9 µM | 64 µg/mL (≈ 173 µM) | > 64 µg/mL | 32 µg/mL (≈ 86.6 µM) | 32 µg/mL (≈ 86.6 µM) | 255 to 257 °C |  | 
3 | O=C1CSC(c2c[n+]([O-])c3ccccc3[n+]2[O-])N1C1CC1 (centres unmarked) [2f, 2-(3′-cyclopropyl-4′(5H)-thiazolidinone)-quinoxaline-1,4-di-N-oxide] | 25 µg/mL | 25 µg/mL | 82.4 µM | 32 µg/mL (≈ 105 µM) | 64 µg/mL (≈ 211 µM) | 64 µg/mL (≈ 211 µM) | 16 µg/mL (≈ 52.7 µM) | 249 to 252 °C |  | 
4 | Cc1ccc2c(c1)[n+]([O-])c(C1SCC(=O)N1c1ccccc1)c[n+]2[O-] (centres unmarked) [2g, 7-CH3-2-(3′-phenyl-4′(5H)-thiazolidinone)-quinoxaline-1,4-di-N-oxide] | 12.5 µg/mL | 12.5 µg/mL | 35.4 µM | 32 µg/mL (≈ 90.5 µM) | 32 µg/mL (≈ 90.5 µM) | 32 µg/mL (≈ 90.5 µM) | 16 µg/mL (≈ 45.3 µM) | 255 to 257 °C |  | 
5 | Cc1ccc(N2C(=O)CSC2c2c[n+]([O-])c3ccc(C)cc3[n+]2[O-])cc1 (centres unmarked) [2h, 7-CH3-2-(3′-P-methylphenyl-4′(5H)-thiazolidinone)-quinoxaline-1,4-di-N-oxide] | 25 µg/mL | 25 µg/mL | 68.1 µM | 32 µg/mL (≈ 87.1 µM) | 64 µg/mL (≈ 174 µM) | 32 µg/mL (≈ 87.1 µM) | 8 µg/mL (≈ 21.8 µM) | 257 to 259 °C |  | 
6 | COc1ccc(N2C(=O)CSC2c2c[n+]([O-])c3ccc(C)cc3[n+]2[O-])cc1 (centres unmarked) [2i, 7-CH3-2-(3′-P-methoxyphenyl-4′(5H)-thiazolidinone)-quinoxaline-1,4-di-N-oxide] | 50 µg/mL | 50 µg/mL | 131 µM | 64 µg/mL (≈ 167 µM) | > 64 µg/mL | 16 µg/mL (≈ 41.7 µM) | 32 µg/mL (≈ 83.5 µM) | 255 to 259 °C |  | 
7 | COc1ccc2c(c1)[n+]([O-])c(C1SCC(=O)N1c1ccccc1)c[n+]2[O-] (centres unmarked) [2l, 7-OMe-2-(3′-phenyl-4′(5H)-thiazolidinone)-quinoxaline-1,4-di-N-oxide] | 100 µg/mL | 100 µg/mL | 271 µM | 64 µg/mL (≈ 173 µM) | > 64 µg/mL | > 64 µg/mL | 32 µg/mL (≈ 86.6 µM) | 254 to 258 °C |  | 
8 | COc1ccc2c(c1)[n+]([O-])c(C1SCC(=O)N1c1ccc(C)cc1)c[n+]2[O-] (centres unmarked) [2m, 7-OMe-2-(3′-P-methylphenyl-4′(5H)-thiazolidinone)-quinoxaline-1,4-di-N-oxide] | 100 µg/mL | 100 µg/mL | 261 µM | > 64 µg/mL | > 64 µg/mL | > 64 µg/mL | 64 µg/mL (≈ 167 µM) | 257 to 259 °C |  | 
9 | COc1ccc(N2C(=O)CSC2c2c[n+]([O-])c3ccc(OC)cc3[n+]2[O-])cc1 (centres unmarked) [2n, 7-OMe-2-(3′-P-methoxyphenyl-4′(5H)-thiazolidinone)-quinoxaline-1,4-di-N-oxide] | 200 µg/mL | 200 µg/mL | 501 µM | > 64 µg/mL | > 64 µg/mL | > 64 µg/mL | 64 µg/mL (≈ 160 µM) | 258 to 260 °C |  | 
10 | COc1ccc2c(c1)[n+]([O-])c(C1SCC(=O)N1c1ccc(F)cc1)c[n+]2[O-] (centres unmarked) [2o, 7-OMe-2-(3′-P-fluorophenyl-4′(5H)-thiazolidinone)-quinoxaline-1,4-di-N-oxide] | 50 µg/mL | 50 µg/mL | 129 µM | 64 µg/mL (≈ 165 µM) | 64 µg/mL (≈ 165 µM) | 32 µg/mL (≈ 82.6 µM) | 64 µg/mL (≈ 165 µM) | 255 to 257 °C |  | 
11 | COc1ccc2c(c1)[n+]([O-])c(C1SCC(=O)N1c1ccc(Cl)cc1)c[n+]2[O-] (centres unmarked) [2p, 7-OMe-2-(3′-P-chlorophenyl-4′(5H)-thiazolidinone)-quinoxaline-1,4-di-N-oxide] | 50 µg/mL | 50 µg/mL | 124 µM | 64 µg/mL (≈ 158 µM) | > 64 µg/mL | 32 µg/mL (≈ 79.2 µM) | 64 µg/mL (≈ 158 µM) | 253 to 256 °C |  | 
12 | Cc1ccc(N2C(=O)CSC2c2c[n+]([O-])c3ccc(F)cc3[n+]2[O-])cc1 (centres unmarked) [2r, 7-F-2-(3′-P-methylphenyl-4′(5H)-thiazolidinone)-quinoxaline-1,4-di-N-oxide] | 12.5 µg/mL | 12.5 µg/mL | 33.7 µM | 8 µg/mL (≈ 21.5 µM) | 8 µg/mL (≈ 21.5 µM) | 16 µg/mL (≈ 43.1 µM) | 8 µg/mL (≈ 21.5 µM) | 249 to 251 °C |  | 
13 | COc1ccc(N2C(=O)CSC2c2c[n+]([O-])c3ccc(F)cc3[n+]2[O-])cc1 (centres unmarked) [2s, 7-F-2-(3′-P-methoxyphenyl-4′(5H)-thiazolidinone)-quinoxaline-1,4-di-N-oxide] | 25 µg/mL | 25 µg/mL | 64.6 µM | 8 µg/mL (≈ 20.7 µM) | 8 µg/mL (≈ 20.7 µM) | 8 µg/mL (≈ 20.7 µM) | 8 µg/mL (≈ 20.7 µM) | 251 to 253 °C |  | 
14 | COc1ccc(N2C(=O)CSC2c2c[n+]([O-])c3ccc(Cl)cc3[n+]2[O-])cc1 (centres unmarked) [2x, 7-Cl-2-(3′-P-methoxyphenyl-4′(5H)-thiazolidinone)-quinoxaline-1,4-di-N-oxide] | 12.5 µg/mL | 12.5 µg/mL | 31 µM | 8 µg/mL (≈ 19.8 µM) | 8 µg/mL (≈ 19.8 µM) | 8 µg/mL (≈ 19.8 µM) | 8 µg/mL (≈ 19.8 µM) | 252 to 254 °C |  | 
15 | CO[C@H]1/C=C/O[C@@]2(C)Oc3c(C)c(O)c4c(O)c(c(/C=N/N5CCN(C)CC5)c(O)c4c3C2=O)NC(=O)/C(C)=C\C=C\[C@H](C)[C@H](O)[C@@H](C)[C@@H](O)[C@@H](C)[C@H](OC(C)=O)[C@@H]1C [RMP, Rifampicin, reference compound] |  |  |  |  |  |  |  |  | 0.125 µg/mL | 
16 | N=C1NC(=O)/C(=C/c2c[n+]([O-])c3ccccc3[n+]2[O-])S1 [V, 2-(2′-iminothiazolidin-4′-one)-quinoxaline-1,4-di-N-oxide] | > 50 µg/mL |  |  |  |  |  |  |  |  | >50 µg/mL
17 | O=C1CSC(c2c[n+]([O-])c3ccccc3[n+]2[O-])N1 (centres unmarked) [VI, 2-(4'(5H)-thiazolone)-quinoxaline-1,4-di-N-oxide] | 6.25 µg/mL |  |  |  |  |  |  |  |  | 
